Laboratory results reported in patent US9993562B2, “Metallic gold cluster molecules as therapeutic agents for arthritic animals” (priority 2016, dated 2018).
No end group written: not given here.

Experiments:
[1] = Effect of treatment on body weight of type II collagen immunized mice; format: in vivo, DBA/1 male mice; conditions: mean ± sd
Method: DBA/1 male mice weighted 20-22 grams were purchased from Hua-Fu-Kang Biotechnology Limited, Beijing, China. Type II collagen and Complete Freund's Adjuvant were purchased from Chondrex Inc., Redmond, Wash., USA. […] Gold25(peptide)9 cluster molecules were prepared according to Example 1.
(§1) Type II collagen was dissolved in 0.1 mM acetic acid solution and was emulsified with equal volume of Complete Freund's Adjuvant to make a 1.0 mg/ml Type II collagen emulsion. After one week of resting and environment adjustment, DBA/1 male mice were divided into groups, each group was consisted of 10 mice. Each animal was injected intradermally at the 2-3 cm base of the tail an emulsion of 100 μg Type II collagen. On day 21, a second booster dose of 100 μg Type II collagen emulsion was injected. Negative control group of mice are injected with equal amount of 0.9% Sodium Chloride solution.
(§2) On day 22, groups of mice were given different drugs once each day for 28 days (4 weeks) until day 49 (end of week 7). The groups of mice were examined for inflammation and status.

[2] = system: Collagen induced arthritis in mice; assay: Visual inflammation scoring of paws (0-4 per limb, four limbs summed), collagen induced arthritis; format: in vivo, DBA/1 male mice
Excerpt: Collagen induced arthritis in mice has been the standard animal model for studying rheumatoid arthritis and other polyarthritis. DBA/1 male mice weighted 20-22 grams were purchased from Hua-Fu-Kang Biotechnology Limited, Beijing, China. Type II collagen and Complete Freund's Adjuvant were purchased from Chondrex Inc., Redmond, Wash., USA. Auranofin was purchased from Sigma, USA and Dexamethasone was purchased from Jin-Yao Amino Acid Company, Tianjing, China. Gold25(peptide)9 cluster molecules were prepared according to Example 1.
as §1, §2
The inflammation was assessed by means of a visual scoring method where mouse individual paws were graded from 0-4 as follows:
0 score: no redness and no swelling;
1 score: mild erythema at the toes;
2 scores: toe joints and paw swelling;
3 scores: swelling below ankle
4 scores: all ankle and paw swelling. • All four limbs of each mouse were examined and scored, and scores of all four limbs were added together for each mouse.

[3] = system: Collagen induced arthritis in mice; assay: Pictures of hind limb swelling (FIG. 6), collagen induced arthritis; format: in vivo, DBA/1 male mice; conditions: end of 7 weeks of the experiment
Method: as §1, §2

[4] = system: Collagen induced arthritis in mice; assay: 3D CT scan of paw joints, bone density changes (FIG. 7); format: in vivo, DBA/1 male mice; conditions: end of week 7
Method: as §1, §2

[5] = system: Collagen induced arthritis in mice; assay: Hematoxylin and eosin histology of hind limb joint sections (FIG. 8); format: in vivo, DBA/1 male mice; conditions: H&E
Method: as §1, §2
To evaluate the soft tissue damages around the joint area, the joint tissues of the hind limbs of each mouse groups were then fixed, embedded, sectioned into slides and hematoxylin and eosin stained to examine the histology and histopathology changes at the joints.

[6] = Amount of gold at the arthritic joints (FIG. 9); format: in vivo, DBA/1 male mice; conditions: group 3, oral 1 mg/kg daily
Method: as §2
In reference to FIG. 9, the amount of gold was measured at the arthritic joints of the variously treated mice groups.

IL-6 = assay: Amount of IL-6 at the arthritic joints (FIG. 10); format: in vivo, DBA/1 male mice
Method: as §2
(§3) In reference to FIGS. 10 and 11, the amount of pro-inflammation cytokine factors IL-6 and IL-1β were measured at the arthritic joints of the variously treated mice groups.

IL-1β = assay: Amount of IL-1β at the arthritic joints (FIG. 11); format: in vivo, DBA/1 male mice
Method: as §2, §3

[7] = orally administered form, crystalline solid; cited from earlier work
[8] = light and heat; cited from earlier work
[9] = patients; cited from earlier work
TNF = assay: Amount of TNF at the arthritic joints; format: in vivo, DBA/1 male mice
Method: as §2
In reference to […], the amount of pro-inflammation cytokine TNF was measured at the arthritic joints of the variously treated mice groups. […] The observed significant differences in effectiveness between orally administering and intraperitoneally administering methods may result from the fact that the amount of gold can be more and directly up-taken through phagocytosis by the macrophage cells peritoneum. This effect is also largely consistent with the prior observation that gold25(peptide)9 cluster molecules are capable of induce apoptosis in various cells, and its binding ability of cysteine-rich pro-inflammation cytokines helps with its anti-inflammation effect.

CC[PH](CC)(CC)[Au][S][C@@H]1O[C@H](COC(C)=O)[C@@H](OC(C)=O)[C@H](OC(C)=O)[C@H]1OC(C)=O [Auranofin, 2,3,4,6-tetra-o-acetyl-1-thio-β-D-glucopyranosato-S-(triethyl-phosphine)-gold, reference compound]
Mice Body Weight ([1]; 0 w (before dosing, which starts day 22), group i.g. 1 mg/kg): 21.60 ± 1.17 g
Mice Body Weight ([1]; 1 wk (before dosing), group i.g. 1 mg/kg): 23.25 ± 1.11 g
Mice Body Weight ([1]; 2 wk (before dosing), group i.g. 1 mg/kg): 23.75 ± 1.11 g
Mice Body Weight ([1]; 3 wk (before dosing), group i.g. 1 mg/kg): 24.35 ± 1.53 g
Mice Body Weight ([1]; 4 wk, i.g. 1 mg/kg once daily from day 22): 22.10 ± 1.10 g
Mice Body Weight ([1]; 5 wk, i.g. 1 mg/kg once daily from day 22): 21.74 ± 1.14 g
Mice Body Weight ([1]; 6 wk, i.g. 1 mg/kg once daily from day 22): 23.24 ± 0.08 g
Mice Body Weight ([1]; 7 wk, i.g. 1 mg/kg once daily from day 22): 23.33 ± 0.25 g
Inflammation visual score (sum of four limbs, each 0-4) ([2]; 35 d, i.g. 1 mg/kg once daily from day 22): 6.66 ± 2.00
Inflammation visual score (sum of four limbs, each 0-4) ([2]; 38 d, i.g. 1 mg/kg once daily from day 22): 5.77 ± 3.42
Inflammation visual score (sum of four limbs, each 0-4) ([2]; 42 d, i.g. 1 mg/kg once daily from day 22): 8.11 ± 2.47
Inflammation visual score (sum of four limbs, each 0-4) ([2]; 45 d, i.g. 1 mg/kg once daily from day 22): 8.33 ± 3.42
Inflammation visual score (sum of four limbs, each 0-4) ([2]; 49 d, i.g. 1 mg/kg once daily from day 22): 9.88 ± 3.06
Swelling scores (in words) ([2]; oral 1 mg/kg body weight): slightly lower swelling scores
Hind limb swelling in pictures (FIG. 6) ([3]; oral 1 mg/kg daily): swelling and no obvious improvement
Bone deformation and osteolysis of paw joints, 3D CT ([4]; oral 1 mg/kg daily): still developed bone deformation and osteolysis
Joint histopathology (bone erosion, soft tissue damage, synovial macrophage infiltration) ([5]; oral 1 mg/kg daily): significant soft tissue damages at the joint areas, and large number of infiltration of synovial macrophage cells
Amount of gold at the arthritic joints [6]: Less but comparable amount gold
Amount of IL-6 at the arthritic joints (IL-6; group 3, oral 1 mg/kg daily): remained high
Amount of IL-1β at the arthritic joints (IL-1β; group 3, oral 1 mg/kg daily): remained high
Solubility in water [7]: insoluble in water
Stability of the powder [8]: unstable and must be protected from light and heat
Side effects [9]: Diarrhea is the most commonly reported

C[C@@H]1C[C@H]2[C@@H]3CCC4=CC(=O)C=C[C@]4(C)[C@@]3(F)[C@@H](O)C[C@]2(C)[C@@]1(O)C(=O)CO [DEX, Dexamethasone, reference compound]
Mice Body Weight ([1]; 2 wk (before dosing), group i.g. 0.5 mg/kg): 23.20 ± 1.06 g
Mice Body Weight ([1]; 3 wk (before dosing), group i.g. 0.5 mg/kg): 23.50 ± 1.02 g
Inflammation visual score (sum of four limbs, each 0-4) ([2]; 35 d, i.g. 0.5 mg/kg once daily from day 22): 0.22 ± 0.44
Inflammation visual score (sum of four limbs, each 0-4) ([2]; 38 d, i.g. 0.5 mg/kg once daily from day 22): 0.33 ± 0.71
Inflammation visual score (sum of four limbs, each 0-4) ([2]; 42 d, i.g. 0.5 mg/kg once daily from day 22): 1.22 ± 1.30
Inflammation visual score (sum of four limbs, each 0-4) ([2]; 45 d, i.g. 0.5 mg/kg once daily from day 22): 1.33 ± 1.00
Inflammation visual score (sum of four limbs, each 0-4) ([2]; 49 d, i.g. 0.5 mg/kg once daily from day 22): 1.22 ± 0.97

Au25 (peptide)9: metallic 25 gold atom cluster binding 9 peptides of SEQ ID NO: 1 Cys-Cys-Tyr-Gly-Gly-Pro-Lys-Lys-Lys-Arg-Lys-Pro-Gly (CCYGGPKKKRKPG; cysteine pairing not given here; also: 9 peptides bound to Au25 gold cluster)
Mice Body Weight ([1]; 0 w (before dosing, which starts day 22), group i.g. 50 mg/kg): 21.60 ± 1.31 g
Mice Body Weight ([1]; 0 w (before dosing, which starts day 22), group i.p. 5 mg/kg): 22 ± 1.27 g
Mice Body Weight ([1]; 1 wk (before dosing), group i.g. 50 mg/kg): 23.05 ± 1.04 g
Mice Body Weight ([1]; 1 wk (before dosing), group i.p. 5 mg/kg): 23.25 ± 1.21 g
Mice Body Weight ([1]; 2 wk (before dosing), group i.g. 50 mg/kg): 23.40 ± 1.33 g
Mice Body Weight ([1]; 2 wk (before dosing), group i.p. 5 mg/kg): 24.13 ± 0.99 g
Mice Body Weight ([1]; 3 wk (before dosing), group i.g. 50 mg/kg): 24.10 ± 1.50 g
Mice Body Weight ([1]; 3 wk (before dosing), group i.p. 5 mg/kg): 24.00 ± 0.85 g
Mice Body Weight ([1]; 4 wk, i.g. 50 mg/kg once daily from day 22): 22.66 ± 1.64 g
Mice Body Weight ([1]; 4 wk, i.p. 5 mg/kg once daily from day 22): 23.30 ± 0.84 g
Mice Body Weight ([1]; 5 wk, i.g. 50 mg/kg once daily from day 22): 22.35 ± 1.73 g
Mice Body Weight ([1]; 5 wk, i.p. 5 mg/kg once daily from day 22): 23.01 ± 0.70 g
Mice Body Weight ([1]; 6 wk, i.g. 50 mg/kg once daily from day 22): 23.23 ± 1.71 g
Mice Body Weight ([1]; 6 wk, i.p. 5 mg/kg once daily from day 22): 22.63 ± 1.71 g
Mice Body Weight ([1]; 7 wk, i.g. 50 mg/kg once daily from day 22): 23.43 ± 1.47 g
Mice Body Weight ([1]; 7 wk, i.p. 5 mg/kg once daily from day 22): 22.47 ± 1.43 g
Inflammation visual score (sum of four limbs, each 0-4) ([2]; 35 d, i.g. 50 mg/kg once daily from day 22): 6.13 ± 3.09
Inflammation visual score (sum of four limbs, each 0-4) ([2]; 35 d, i.p. 5 mg/kg once daily from day 22): 8.00 ± 2.78
Inflammation visual score (sum of four limbs, each 0-4) ([2]; 38 d, i.g. 50 mg/kg once daily from day 22): 7.00 ± 3.07
Inflammation visual score (sum of four limbs, each 0-4) ([2]; 38 d, i.p. 5 mg/kg once daily from day 22): 7.77 ± 4.49
Inflammation visual score (sum of four limbs, each 0-4) ([2]; 42 d, i.g. 50 mg/kg once daily from day 22): 8.88 ± 3.04
Inflammation visual score (sum of four limbs, each 0-4) ([2]; 42 d, i.p. 5 mg/kg once daily from day 22): 7.00 ± 3.20
Inflammation visual score (sum of four limbs, each 0-4) ([2]; 45 d, i.g. 50 mg/kg once daily from day 22): 8.88 ± 3.52
Inflammation visual score (sum of four limbs, each 0-4) ([2]; 45 d, i.p. 5 mg/kg once daily from day 22): 6.38 ± 2.33
Inflammation visual score (sum of four limbs, each 0-4) ([2]; 49 d, i.g. 50 mg/kg once daily from day 22): 9.13 ± 0.48
Inflammation visual score (sum of four limbs, each 0-4) ([2]; 49 d, i.p. 5 mg/kg once daily from day 22): 5.88 ± 3.40
Swelling and joint deformity (in words) ([2]; i.p. 5 mg/kg body weight, 3′ week of treatment): significantly improved
Swelling scores (in words) ([2]; oral 50 mg/kg body weight, by the end of 4 weeks of treatment): better scores than Auranofin, but still developed comparable inflammation
Hind limb swelling in pictures (FIG. 6) ([3]; i.p. 5 mg/kg daily): obvious reduced swelling and improvement in deformation
Hind limb swelling in pictures (FIG. 6) ([3]; oral 50 mg/kg daily): still obvious swelling and slightly better condition
Bone density, deformation and osteolysis of paw joints, 3D CT ([4]; i.p. 5 mg/kg daily): significant improvement on the bone density comparing the non-treated arthritis mice, and no obvious osteolysis and only slight bone deformation
Bone deformation and osteolysis of paw joints, 3D CT ([4]; oral 50 mg/kg daily): still developed bone deformation and osteolysis
Joint histopathology (bone erosion, soft tissue damage, synovial macrophage infiltration) ([5]; i.p. 5 mg/kg daily): the bone erosion is significantly less and no apparent number of synovial macrophage cells infiltration
Joint histopathology (bone erosion, soft tissue damage, synovial macrophage infiltration) ([5]; oral 50 mg/kg daily): reduced soft tissue damages and less macrophage infiltration
Amount of IL-6 at the arthritic joints (IL-6; group 4, oral 50 mg/kg daily): reduced these two cytokines to the similar level as that of Dex
Amount of IL-6 at the arthritic joints (IL-6; group 5, i.p. 5 mg/kg daily): reduced these two cytokines to the similar level as that of Dex
Amount of IL-1β at the arthritic joints (IL-1β; group 4, oral 50 mg/kg daily): reduced these two cytokines to the similar level as that of Dex
Amount of IL-1β at the arthritic joints (IL-1β; group 5, i.p. 5 mg/kg daily): reduced these two cytokines to the similar level as that of Dex
Amount of TNF at the arthritic joints (TNF; group 4, oral 50 mg/kg daily): also reduced the amount of TNF
Amount of TNF at the arthritic joints (TNF; group 5, i.p. 5 mg/kg daily): dramatically reduced the TNF generation
